# Tested on: experimental autoimmune encephalomyelitis
# Assay: Experimental autoimmune encephalomyelitis model
# Format: in vivo
# Conditions: SJL/J mouse, orally once daily at 1 mg/kg body weight or more
# Description: An emulsion of PLP139-151/CFA was subcutaneously administered to the upper dorsal region and in the tail of an 8-week-old female SJL/J mouse at a dose of 100 μL/body. At 2 hours and 24 hours after the administration, pertussis toxin was peritoneally administered at a dose of 100 μL/body. Thus, the mouse prepared in this procedure was used as an experimental autoimmune encephalomyelitis model. […] The compound suspended in a solution of 0.5% hydroxypropyl methylcellulose was orally administered by force once daily. The changes in pathological score and body weight were recorded and the results compared to the vehicle-treated group, from which the efficacy of the compounds was evaluated.
structure (smiles),measurement,value
"CC(C)Oc1ccc(-c2cnc(-c3ccc(CN4CC(C(=O)O)C4)cc3)s2)cc1 [Example 2, 1-(4-(5-(4-isopropoxyphenyl)thiazol-2-yl)benzyl)azetidine-3-carboxylic acid]",inhibition of pathological scores,significantly inhibit

# From patent US8895753B2, “S1P receptor modulating agent” (Meiji Seika Pharma Co., Ltd., priority 2011, dated 2014)
